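Briefly, cells in 96-well plates were exposed to five compound concentrations for 48 h, and endpoints were estimated by linear interpolation. GI50 is the concentration that inhibits growth by half.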 The source made the active and inactive calls. Rule as the data show it: active = GI50 up to about 1.1 µM and inactive = higher.
Assays:
Test in all cases: NCI anticancer screen, dose series, 48 h
K562 = system: K562
UACC-257 = system: UACC-257
OVCAR-8 = system: OVCAR-8
RPMI-8226 = system: RPMI-8226
SK-MEL-2 = system: SK-MEL-2
SNB-75 = system: SNB-75
786-0 = system: 786-0
SR = system: SR
SF-268 = system: SF-268
HT-29 = system: HT-29
COLO 205 = system: COLO 205
SK-MEL-28 = system: SK-MEL-28
UACC-62 = system: UACC-62
HOP-92 = system: HOP-92
OVCAR-5 = system: OVCAR-5
NCI-H522 = system: NCI-H522

| SMILES | GI50 (K562) | GI50 (UACC-257) | GI50 (OVCAR-8) | GI50 (RPMI-8226) | GI50 (SK-MEL-2) | GI50 (SNB-75) | GI50 (786-0) | GI50 (SR) | GI50 (SF-268) | GI50 (HT-29) | GI50 (COLO 205) | GI50 (SK-MEL-28) | GI50 (UACC-62) | GI50 (HOP-92) | GI50 (OVCAR-5) | GI50 (NCI-H522) |
| --- | --- | --- | --- | --- | --- | --- | --- | --- | --- | --- | --- | --- | --- | --- | --- | --- |
| CC(C)(C)C1=CC(=NNC(=S)NCc2ccccc2)C=C(C(C)(C)C)C1=O | 83 µM (inactive) | 91.6 µM (inactive) | > 100 µM (inactive) | > 100 µM (inactive) | > 100 µM (inactive) | 27.9 µM (inactive) | 55.6 µM (inactive) | > 100 µM (inactive) | 87.3 µM (inactive) | 73.1 µM (inactive) | 51.5 µM (inactive) | > 100 µM (inactive) | > 100 µM (inactive) | – | – | – |
| COc1cc(Br)c(/C=N\c2cccc3ccc(OS(=O)(=O)c4cccc([N+](=O)[O-])c4)cc23)cc1OC | 21.1 µM (inactive) | 41.1 µM (inactive) | 24 µM (inactive) | 24 µM (inactive) | 39.4 µM (inactive) | – | 25.4 µM (inactive) | 20.2 µM (inactive) | 19.4 µM (inactive) | 34.7 µM (inactive) | 66.8 µM (inactive) | 6.52 µM (inactive) | 23.1 µM (inactive) | 2.44 µM (inactive) | > 100 µM (inactive) | 22.1 µM (inactive) |
| Sc1ncnc2c1ncn2C1CCCO1 (stereo unspecified) | 38.8 µM (inactive) | – | > 100 µM (inactive) | 99.5 µM (inactive) | > 100 µM (inactive) | 65.3 µM (inactive) | > 100 µM (inactive) | – | > 100 µM (inactive) | > 100 µM (inactive) | > 100 µM (inactive) | > 100 µM (inactive) | 76.2 µM (inactive) | 39.3 µM (inactive) | > 100 µM (inactive) | 64.6 µM (inactive) |
| CCCCCCCCCCCCCCCCCCOCC1(COP(=O)([O-])OCC[N+](C)(C)C)CCCO1 (stereo unspecified) | 16.4 µM (inactive) | 13.9 µM (inactive) | 11.2 µM (inactive) | 2.79 µM (inactive) | 10.9 µM (inactive) | 5.56 µM (inactive) | 3.73 µM (inactive) | – | 5.87 µM (inactive) | 4.41 µM (inactive) | 1.87 µM (inactive) | 18.2 µM (inactive) | 8.75 µM (inactive) | 3.27 µM (inactive) | 12.4 µM (inactive) | 1.96 µM (inactive) |
| COC(=O)/N=C(\NC(=O)OC)Nc1ccc(Oc2ccccc2)cc1NC=O | 0.265 µM (active) | 2.48 µM (inactive) | 0.593 µM (active) | 2.55 µM (inactive) | – | 0.421 µM (active) | 0.483 µM (active) | – | 0.673 µM (active) | 0.348 µM (active) | 0.2 µM (active) | – | 0.573 µM (active) | 24.3 µM (inactive) | > 100 µM (inactive) | 0.253 µM (active) |
| O=C1CCC2(c3ccccc3)Nc3ccccc3N12 (stereo unspecified) | > 100 µM (inactive) | > 100 µM (inactive) | > 100 µM (inactive) | > 100 µM (inactive) | > 100 µM (inactive) | > 100 µM (inactive) | > 100 µM (inactive) | – | > 100 µM (inactive) | > 100 µM (inactive) | > 100 µM (inactive) | > 100 µM (inactive) | > 100 µM (inactive) | > 100 µM (inactive) | > 100 µM (inactive) | > 100 µM (inactive) |
| CN1C[C@@H]2CC(=O)CC[C@@H]2C[C@H]1C#N | > 100 µM (inactive) | > 100 µM (inactive) | > 100 µM (inactive) | > 100 µM (inactive) | > 100 µM (inactive) | > 100 µM (inactive) | > 100 µM (inactive) | – | > 100 µM (inactive) | > 100 µM (inactive) | – | – | > 100 µM (inactive) | > 100 µM (inactive) | > 100 µM (inactive) | > 100 µM (inactive) |
| O=C1NC2C(O)CCCCC2C12CCCCC2 (stereo unspecified) | > 100 µM (inactive) | > 100 µM (inactive) | > 100 µM (inactive) | > 100 µM (inactive) | > 100 µM (inactive) | > 100 µM (inactive) | > 100 µM (inactive) | – | > 100 µM (inactive) | > 100 µM (inactive) | > 100 µM (inactive) | > 100 µM (inactive) | > 100 µM (inactive) | > 100 µM (inactive) | > 100 µM (inactive) | > 100 µM (inactive) |
| COc1ccc(OC)c2c(C(=O)O)c(C(C)c3ccccc3)ccc12 (stereo unspecified) | > 100 µM (inactive) | > 100 µM (inactive) | > 100 µM (inactive) | – | > 100 µM (inactive) | > 100 µM (inactive) | > 100 µM (inactive) | > 100 µM (inactive) | > 100 µM (inactive) | > 100 µM (inactive) | > 100 µM (inactive) | > 100 µM (inactive) | > 100 µM (inactive) | – | > 100 µM (inactive) | > 100 µM (inactive) |
| CC1(C)SCc2nc3ncccc3n21 | > 100 µM (inactive) | > 100 µM (inactive) | > 100 µM (inactive) | > 100 µM (inactive) | > 100 µM (inactive) | > 100 µM (inactive) | > 100 µM (inactive) | – | > 100 µM (inactive) | > 100 µM (inactive) | > 100 µM (inactive) | > 100 µM (inactive) | > 100 µM (inactive) | > 100 µM (inactive) | > 100 µM (inactive) | > 100 µM (inactive) |
| CCN(CC)CCNc1ccc2nc(C)n3c4ccc(O)cc4c(=O)c1c23 | 1.48 µM (inactive) | 8.63 µM (inactive) | 0.371 µM (active) | 2.16 µM (inactive) | 7.24 µM (inactive) | 1.09 µM (active) | 0.381 µM (active) | 0.049 µM (active) | 0.481 µM (active) | 0.246 µM (active) | – | 2.77 µM (inactive) | – | – | 0.479 µM (active) | 0.179 µM (active) |
| CC(C)c1cccc(C(C)C)c1NC(=O)/C(Cc1nc2ccc(Cl)cc2nc1O)=N\NC(=O)C[N+](C)(C)C | > 100 µM (inactive) | > 100 µM (inactive) | > 100 µM (inactive) | > 100 µM (inactive) | > 100 µM (inactive) | – | > 100 µM (inactive) | > 100 µM (inactive) | > 100 µM (inactive) | > 100 µM (inactive) | > 100 µM (inactive) | > 100 µM (inactive) | > 100 µM (inactive) | 85.5 µM (inactive) | > 100 µM (inactive) | > 100 µM (inactive) |
| CC(C)(Oc1ccc(C(=O)c2ccc(Cl)cc2)cc1Cl)C(=O)N1CCN(c2ccccc2)CC1 | 34.4 µM (inactive) | 43.7 µM (inactive) | > 100 µM (inactive) | > 100 µM (inactive) | > 100 µM (inactive) | – | > 100 µM (inactive) | 66.1 µM (inactive) | > 100 µM (inactive) | > 100 µM (inactive) | – | > 100 µM (inactive) | > 100 µM (inactive) | > 100 µM (inactive) | > 100 µM (inactive) | 59 µM (inactive) |
| COc1cc2c(c(OC)c1OC)-c1ccc(SC)c(=O)cc1[C@@H](NC(=O)c1ccc(Cl)cc1)CC2 | < 0.01 µM (active) | < 0.01 µM (active) | < 0.01 µM (active) | < 0.01 µM (active) | < 0.01 µM (active) | 2.16 µM (inactive) | < 0.01 µM (active) | < 0.01 µM (active) | < 0.01 µM (active) | < 0.01 µM (active) | < 0.01 µM (active) | 13.9 µM (inactive) | < 0.01 µM (active) | – | – | – |
| CCC1OCCN1C(C)C (stereo unspecified) | > 100 µM (inactive) | 97.5 µM (inactive) | > 100 µM (inactive) | 60 µM (inactive) | > 100 µM (inactive) | – | > 100 µM (inactive) | > 100 µM (inactive) | > 100 µM (inactive) | – | > 100 µM (inactive) | 32.8 µM (inactive) | 59 µM (inactive) | – | > 100 µM (inactive) | 85.5 µM (inactive) |
| O=c1[nH]ccc(CNC23CC4CC(CC(C4)C2)C3)c1O | 88.3 µM (inactive) | > 100 µM (inactive) | > 100 µM (inactive) | > 100 µM (inactive) | > 100 µM (inactive) | > 100 µM (inactive) | > 100 µM (inactive) | 45.2 µM (inactive) | – | > 100 µM (inactive) | > 100 µM (inactive) | – | > 100 µM (inactive) | – | > 100 µM (inactive) | 24.8 µM (inactive) |
| COC(=O)C(=Cc1cc(OC)ccc1OC)C(=O)OC | 18 µM (inactive) | 14.1 µM (inactive) | 30 µM (inactive) | 25.9 µM (inactive) | 22.1 µM (inactive) | 19.9 µM (inactive) | 23.4 µM (inactive) | – | 34.2 µM (inactive) | 21.8 µM (inactive) | 18.2 µM (inactive) | 23.6 µM (inactive) | 20.9 µM (inactive) | 19.2 µM (inactive) | 28.2 µM (inactive) | 15.1 µM (inactive) |
| CCN(CC)c1c(C(=O)/C=C/c2ccccc2)c(-c2ccccc2)nn(C)c1=O | 2.52 µM (inactive) | 8.17 µM (inactive) | 5.37 µM (inactive) | – | – | – | 7.31 µM (inactive) | 3.21 µM (inactive) | 5.98 µM (inactive) | 5.48 µM (inactive) | 5.81 µM (inactive) | 7.14 µM (inactive) | 5.41 µM (inactive) | 45.1 µM (inactive) | 6.53 µM (inactive) | 6 µM (inactive) |
| C[C@]12Cc3cn[nH]c3C(=O)C1CC[C@@H]1C2CC[C@@]2(C)C1CC[C@@H]2O (stereo partly specified) | > 100 µM (inactive) | > 100 µM (inactive) | > 100 µM (inactive) | > 100 µM (inactive) | 1.23 µM (inactive) | > 100 µM (inactive) | > 100 µM (inactive) | – | > 100 µM (inactive) | > 100 µM (inactive) | > 100 µM (inactive) | > 100 µM (inactive) | > 100 µM (inactive) | > 100 µM (inactive) | > 100 µM (inactive) | > 100 µM (inactive) |
| Cc1ccc(C(=O)NC2CCCCC2)cc1/N=N/N(C)C | – | > 100 µM (inactive) | > 100 µM (inactive) | – | > 100 µM (inactive) | – | > 100 µM (inactive) | – | 44.9 µM (inactive) | > 100 µM (inactive) | – | > 100 µM (inactive) | > 100 µM (inactive) | > 100 µM (inactive) | – | 74 µM (inactive) |
